In this test the test system is B6C3F1 mice, intracerebral ependymoblastoma, median survival T/C. Description: NCI In Vivo Anticancer Drug Screen. Data for tumor model Ependymoblastoma (intracerebral) in B6C3F1 mice. The settings on record: endpoint: median survival time, higher = longer survival. The method, then: The antitumor activity of compounds was measured in mice bearing transplantable tumors. Survival or tumor size were measured and the results are expressed as the measurement made in the treated group (T) divided by the measurement made in the vehicle treated control group (C). The tumor model used in this assay is Ependymoblastoma (intracerebral) in B6C3F1 mice

“And” between values parts separate entries of the source, which are not always exact repeats. Identical values can stand only once. Inconclusive results and toxic doses are left out.

Consider `O=NN(CCF)C(=O)NC1C(O)CCCC1O` (stereo unspecified), for which the T/C by setting is: (dose: 5.18 mg/kg/injection, schedule: Q01DX005 (ip), vehicle: Klucel (hydroxypropylcellulose) (HPC)) 189 % of control; (dose: 8.64 mg/kg/injection, schedule: Q01DX005 (ip), vehicle: Klucel (hydroxypropylcellulose) (HPC)) 230 % of control; (dose: 13.0 mg/kg/injection, schedule: Q01DX001 (ip), vehicle: saline) 115 % of control; (dose: 14.4 mg/kg/injection, schedule: Q01DX005 (ip), vehicle: Klucel (hydroxypropylcellulose) (HPC)) 357 % of control; (dose: 24.0 mg/kg/injection, schedule: Q01DX005 (ip), vehicle: Klucel (hydroxypropylcellulose) (HPC)) 111 % of control; (dose: 36.0 mg/kg/injection, schedule: Q01DX001 (ip), vehicle: saline) 159 % of control. Moreover, the T/C was 247 % of control (dose: 60.0 mg/kg/injection, schedule: Q01DX001 (ip), vehicle: saline) and 157 % of control (dose: 100.0 mg/kg/injection, schedule: Q01DX001 (ip), vehicle: saline).

Regarding `c1cc2n(n1)CCN2`, the T/C by setting is: (dose: 32.0 mg/kg/injection, schedule: Q01DX005 (ip), vehicle: water) 93 % of control and 88 % of control; (dose: 32.0 mg/kg/injection, schedule: Q#A X006 (ip), vehicle: water) 100 % of control; (dose: 64.0 mg/kg/injection, schedule: Q01DX001 (ip), vehicle: water) 93 % of control and 94 % of control; (dose: 64.0 mg/kg/injection, schedule: Q01DX001 (oral), vehicle: water) 100 % of control and 106 % of control; (dose: 64.0 mg/kg/injection, schedule: Q01DX005 (ip), vehicle: water) 102 % of control and 104 % of control; (dose: 64.0 mg/kg/injection, schedule: Q01DX005 (oral), vehicle: water) 98 % of control. The T/C reads like this: (dose: 64.0 mg/kg/injection, schedule: Q#A X002 (ip), vehicle: water) 98 % of control; (dose: 64.0 mg/kg/injection, schedule: Q#A X004 (ip), vehicle: water) 94 % of control; (dose: 64.0 mg/kg/injection, schedule: Q#A X006 (ip), vehicle: water) 102 % of control; (dose: 128.0 mg/kg/injection, schedule: Q01DX001 (ip), vehicle: water) 92 % of control and 93 % of control; (dose: 128.0 mg/kg/injection, schedule: Q01DX001 (oral), vehicle: water) 103 % of control and 108 % of control; (dose: 128.0 mg/kg/injection, schedule: Q01DX005 (ip), vehicle: water) 91 % of control and 113 % of control. Besides, the T/C (dose: 128.0 mg/kg/injection, schedule: Q01DX005 (oral), vehicle: water) is 104 % of control; the T/C (dose: 128.0 mg/kg/injection, schedule: Q#A X002 (ip), vehicle: water) was 100 % of control; the T/C (dose: 128.0 mg/kg/injection, schedule: Q#A X004 (ip), vehicle: water) was 109 % of control; the T/C (dose: 128.0 mg/kg/injection, schedule: Q#A X006 (ip), vehicle: water) was 102 % of control; the T/C (dose: 256.0 mg/kg/injection, schedule: Q01DX001 (ip), vehicle: water) is 92 % of control and 100 % of control; the T/C (dose: 256.0 mg/kg/injection, schedule: Q01DX001 (oral), vehicle: water) was 98 % of control and 100 % of control. The T/C (dose: 256.0 mg/kg/injection, schedule: Q01DX005 (ip), vehicle: water) was 106 % of control; the T/C (dose: 256.0 mg/kg/injection, schedule: Q01DX005 (oral), vehicle: water) was 116 % of control; the T/C (dose: 256.0 mg/kg/injection, schedule: Q#A X002 (ip), vehicle: water) is 98 % of control; the T/C (dose: 256.0 mg/kg/injection, schedule: Q#A X006 (ip), vehicle: water) is 115 % of control; the T/C (dose: 512.0 mg/kg/injection, schedule: Q01DX001 (ip), vehicle: water) was 106 % of control and 122 % of control; the T/C (dose: 512.0 mg/kg/injection, schedule: Q01DX001 (oral), vehicle: water) was 103 % of control and 121 % of control. In addition, the T/C (dose: 1024.0 mg/kg/injection, schedule: Q01DX001 (ip), vehicle: water) is 109 % of control.

For the molecule `CCCCCCCCN(C)/N=N/c1nc[nH]c1C(N)=O`, the T/C is, setting by setting: (dose: 8.0 mg/kg/injection, schedule: Q01DX005 (ip), vehicle: saline with Tween-80) 119 % of control; (dose: 16.0 mg/kg/injection, schedule: Q01DX005 (ip), vehicle: saline with Tween-80) 122 % of control and 123 % of control; (dose: 32.0 mg/kg/injection, schedule: Q01DX005 (ip), vehicle: saline with Tween-80) 113 % of control; (dose: 64.0 mg/kg/injection, schedule: Q01DX005 (ip), vehicle: saline with Tween-80) 111 % of control.

With `OC(C1CO1)C(O)C1CO1` (stereo unspecified), the T/C is 112 % of control (dose: 0.25 mg/kg/injection, schedule: Q01DX005 (ip), vehicle: saline); 115 % of control (dose: 0.5 mg/kg/injection, schedule: Q01DX005 (ip), vehicle: water); 94 % of control and 121 % of control (dose: 1.0 mg/kg/injection, schedule: Q01DX001 (ip), vehicle: saline); 112 % of control (dose: 1.0 mg/kg/injection, schedule: Q01DX005 (ip), vehicle: water); 105 % of control (dose: 1.0 mg/kg/injection, schedule: Q#A X002 (ip), vehicle: water); 113 % of control (dose: 2.0 mg/kg/injection, schedule: Q01DX001 (ip), vehicle: saline). The T/C runs as follows: (dose: 2.0 mg/kg/injection, schedule: Q01DX001 (ip), vehicle: water) 105 % of control and 110 % of control and 118 % of control; (dose: 2.0 mg/kg/injection, schedule: Q01DX005 (ip), vehicle: water) 124 % of control; (dose: 2.0 mg/kg/injection, schedule: Q#A X002 (ip), vehicle: water) 112 % of control; (dose: 4.0 mg/kg/injection, schedule: Q01DX001 (ip), vehicle: saline) 113 % of control; (dose: 4.0 mg/kg/injection, schedule: Q01DX001 (ip), vehicle: water) 116 % of control and 117 % of control; (dose: 4.0 mg/kg/injection, schedule: Q01DX005 (ip), vehicle: water) 181 % of control. For the same molecule, the T/C by setting is: (dose: 8.0 mg/kg/injection, schedule: Q01DX001 (ip), vehicle: saline) 113 % of control; (dose: 8.0 mg/kg/injection, schedule: Q01DX001 (ip), vehicle: water) 151 % of control; (dose: 8.0 mg/kg/injection, schedule: Q#A X002 (ip), vehicle: water) 175 % of control; (dose: 16.0 mg/kg/injection, schedule: Q01DX001 (ip), vehicle: saline) 150 % of control and 166 % of control; (dose: 16.0 mg/kg/injection, schedule: Q01DX001 (ip), vehicle: water) 175 % of control.

Regarding `S=P(N1CC1)(N1CC1)N1CC1`, the T/C (dose: 8.0 mg/kg/injection, schedule: Q01DX005 (ip), vehicle: saline) is 169 % of control.

Consider `CN(N=O)C(=O)N[C@@H](C=O)[C@@H](O)[C@H](O)[C@H](O)CO`, for which the T/C by setting is: (dose: 6.25 mg/kg/injection, schedule: Q01DX009 (ip), vehicle: citric acid) 96 % of control; (dose: 12.5 mg/kg/injection, schedule: Q01DX005 (ip), vehicle: saline) 103 % of control; (dose: 12.5 mg/kg/injection, schedule: Q01DX009 (ip), vehicle: citric acid) 108 % of control; (dose: 25.0 mg/kg/injection, schedule: Q01DX005 (ip), vehicle: saline) 122 % of control; (dose: 25.0 mg/kg/injection, schedule: Q01DX009 (ip), vehicle: citric acid) 117 % of control; (dose: 64.0 mg/kg/injection, schedule: Q01DX001 (ip), vehicle: other) 108 % of control. Besides, the T/C was 121 % of control (dose: 75.0 mg/kg/injection, schedule: Q01DX001 (ip), vehicle: saline); 113 % of control (dose: 100.0 mg/kg/injection, schedule: Q01DX005 (ip), vehicle: saline); 105 % of control (dose: 128.0 mg/kg/injection, schedule: Q01DX001 (ip), vehicle: other); 113 % of control (dose: 200.0 mg/kg/injection, schedule: Q01DX005 (ip), vehicle: saline); 101 % of control (dose: 256.0 mg/kg/injection, schedule: Q01DX001 (ip), vehicle: other); 103 % of control (dose: 400.0 mg/kg/injection, schedule: Q01DX005 (ip), vehicle: saline). Also, the T/C (dose: 512.0 mg/kg/injection, schedule: Q01DX001 (ip), vehicle: other) is 108 % of control.

With `COc1cc2c(cc1O)N=C[C@@H]1CCC(O)N1C2=O` (mixture of isomers), the T/C reads like this: (dose: 2.0 mg/kg/injection, schedule: Q01DX005 (ip), vehicle: distilled water + Tween-80) 95 % of control; (dose: 4.0 mg/kg/injection, schedule: Q01DX005 (ip), vehicle: distilled water + Tween-80) 92 % of control; (dose: 8.0 mg/kg/injection, schedule: Q01DX005 (ip), vehicle: distilled water + Tween-80) 87 % of control.

Source of the values: PubChem BioAssay AID226 (DTP/NCI, 2004).
